Results taken from patent US8461328B2, “Tricyclic heterocyclic compounds, compositions and methods of use thereof” (Genentech, Inc., priority 2010, dated 2013).

Assays:
Format in all cases: biochemical
[1] = biological target: T1, JAK2 (Homo sapiens, UniProt O60674); test: JAK2 inhibition (Table 4); conditions: read-out: JAK2 Ki
T1 construct: made in house; host or cells: SF9 insect cells (baculovirus)

[2] = biological target: T2, TYK2 (Homo sapiens, UniProt P29597); test: TYK2 inhibition (Table 4)
T2 construct: made in house; host or cells: SF9 insect cells (baculovirus)
T2 sequence (P29597 873-1187): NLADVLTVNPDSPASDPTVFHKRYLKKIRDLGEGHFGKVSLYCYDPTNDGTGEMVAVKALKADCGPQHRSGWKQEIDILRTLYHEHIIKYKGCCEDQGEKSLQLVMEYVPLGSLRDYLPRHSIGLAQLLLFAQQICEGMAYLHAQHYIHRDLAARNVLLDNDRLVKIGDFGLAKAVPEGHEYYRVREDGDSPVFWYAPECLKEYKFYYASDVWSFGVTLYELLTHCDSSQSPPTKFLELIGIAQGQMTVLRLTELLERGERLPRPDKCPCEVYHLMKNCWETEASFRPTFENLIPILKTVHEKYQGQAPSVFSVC

[3] = biological target: T3, JAK1 (Homo sapiens, UniProt P23458); test: JAK1 inhibition (Table 4); conditions: read-out: JAK1 Ki
T3 construct: made in house; host or cells: SF9 insect cells (baculovirus)

[4] = biological target: T4, JAK3 (Homo sapiens, UniProt P52333); test: JAK3 inhibition (Table 4); conditions: read-out: JAK3 Ki
T4 construct: made in house; host or cells: SF9 insect cells (baculovirus)
T4 sequence (P52333 783-1124): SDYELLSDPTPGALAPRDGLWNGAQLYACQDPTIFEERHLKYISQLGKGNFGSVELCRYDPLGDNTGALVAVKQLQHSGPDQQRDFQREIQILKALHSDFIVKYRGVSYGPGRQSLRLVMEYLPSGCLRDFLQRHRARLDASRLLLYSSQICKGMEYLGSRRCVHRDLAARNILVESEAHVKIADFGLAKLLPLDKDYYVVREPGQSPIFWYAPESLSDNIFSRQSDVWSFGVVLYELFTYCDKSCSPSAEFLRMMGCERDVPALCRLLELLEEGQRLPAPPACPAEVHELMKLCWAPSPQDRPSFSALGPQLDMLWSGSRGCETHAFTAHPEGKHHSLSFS

T3 sequence (P23458 852-1154): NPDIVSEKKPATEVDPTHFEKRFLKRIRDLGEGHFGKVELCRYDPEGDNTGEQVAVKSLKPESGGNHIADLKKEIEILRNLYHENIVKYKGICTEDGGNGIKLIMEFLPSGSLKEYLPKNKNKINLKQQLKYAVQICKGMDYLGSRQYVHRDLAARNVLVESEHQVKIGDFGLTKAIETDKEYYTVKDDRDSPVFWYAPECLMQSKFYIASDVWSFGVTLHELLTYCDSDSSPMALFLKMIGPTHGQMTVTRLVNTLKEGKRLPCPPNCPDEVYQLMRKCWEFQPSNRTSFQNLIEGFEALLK
T1 sequence (O60674 812-1132): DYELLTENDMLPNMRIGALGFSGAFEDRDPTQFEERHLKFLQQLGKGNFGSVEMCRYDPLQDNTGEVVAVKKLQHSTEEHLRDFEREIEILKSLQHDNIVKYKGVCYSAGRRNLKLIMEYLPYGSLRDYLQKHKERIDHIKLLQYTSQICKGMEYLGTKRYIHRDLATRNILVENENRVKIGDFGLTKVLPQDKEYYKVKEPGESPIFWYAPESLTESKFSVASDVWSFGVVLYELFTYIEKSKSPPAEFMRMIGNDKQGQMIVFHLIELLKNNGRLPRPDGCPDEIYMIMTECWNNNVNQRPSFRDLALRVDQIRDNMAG

| Compound | Ki [1] [nM] | Ki [2] [nM] | Ki [3] [nM] | Ki [4] [nM] |
| --- | --- | --- | --- | --- |
| COCCN(C)C(=O)NC1CCC(n2cnc3cnc4[nH]ccc4c32)C1 (racemic) [Example 739, 1-(2-Methoxy-ethyl)-1-methyl-3-[3-(6H-1,3,5,6-tetraaza-as-indacen-1-yl)-cyclopentyl]-urea] | 53.8 | 536 | 21.3 | 299 |
| OCCOc1nc2cnc3[nH]ccc3c2n1C1CCCOC1 (racemic) [Example 780, 2-[1-(Tetrahydro-pyran-3-yl)-1,6-dihydro-1,3,5,6-tetraaza-as-indacen-2-yloxy]-ethanol] | 41.2 | 109 | 15.8 | 74.2 |
| CCN1CCC(n2c(CCNS(C)(=O)=O)nc3cnc4[nH]ccc4c32)C(F)(F)C1 (racemic) [Example 804, N-{2-[1-(1-Ethyl-3,3-difluoro-piperidin-4-yl)-1,6-dihydro-1,3,5,6-tetraaza-as-indacen-2-yl]-ethyl}-methanesulfonamide] | 25.2 | 172 | 2.97 | 13.6 |
| COCC(=O)NCCc1nc2cnc3[nH]ccc3c2n1C1CCCOC1 (racemic) [Example 860, 2-Methoxy-N-{2-[1-(tetrahydro-pyran-3-yl)-1,6-dihydro-1,3,5,6-tetraaza-as-indacen-2-yl]-ethyl}-acetamide] | 296 | 806 | 20.2 | 561 |
| O=C(Cc1nc2cnc3[nH]ccc3c2n1C1CC2CCC1C2)N1CCC(O)CC1 (racemic) [Example 869, 2-(1-Bicyclo[2.2.1]hept-2-yl-1,6-dihydro-1,3,5,6-tetraaza-as-indacen-2-yl)-1-(4-hydroxy-piperidin-1-yl)-ethanone] | 17.9 | 10.1 | 0.89 | 8.69 |
| OC(c1nc2cnc3[nH]ccc3c2n1C1CCCCC1)C1CCOCC1 (racemic) [Example 875, (1-Cyclohexyl-1,6-dihydro-1,3,5,6-tetraaza-as-indacen-2-yl)-(tetrahydro-pyran-4-yl)-methanol] | 290 | 86.2 | 35 | 95.5 |
| OC(c1nc2cnc3[nH]ccc3c2n1C1CCCCC1)C1CC1 (racemic) [Example 940, (1-Cyclohexyl-1,6-dihydro-1,3,5,6-tetraaza-as-indacen-2-yl)-cyclopropyl-methanol] | 31.3 | 8.91 | 0.96 | 25.5 |
| CCN1CCC(n2c(CO)nc3cnc4[nH]ccc4c32)C(F)(F)C1 (racemic) [Example 941, [1-(1-Ethyl-3,3-difluoro-piperidin-4-yl)-1,6-dihydro-1,3,5,6-tetraaza-as-indacen-2-yl]-methanol] | 10.6 | 14.7 | 1.8 | 5.97 |
| O=C(O)C1CC1C(O)c1nc2cnc3[nH]ccc3c2n1C1CCCCC1 (racemic) [Example 942, 2-[(1-Cyclohexyl-1,6-dihydro-1,3,5,6-tetraaza-as-indacen-2-yl)-hydroxy-methyl]-cyclopropanecarboxylic acid] | 200 | 30.5 | 5.09 | 94.1 |
| CS(=O)(=O)NCc1nc2cnc3[nH]ccc3c2n1C1CCNCC1(F)F (racemic) [Example 945, N-[1-(3,3-Difluoro-piperidin-4-yl)-1,6-dihydro-1,3,5,6-tetraaza-as-indacen-2-ylmethyl]-methanesulfonamide] | 35 | 32.5 | 3.19 | 20.3 |
| CS(=O)(=O)NCc1nc2cnc3[nH]ccc3c2n1C1CCN(Cc2ccccc2)CC1(F)F (racemic) [Example 946, N-[1-(1-Benzyl-3,3-difluoro-piperidin-4-yl)-1,6-dihydro-1,3,5,6-tetraaza-as-indacen-2-ylmethyl]-methanesulfonamide] | 9.65 | 156 | 1.43 | 12.1 |
| OCc1nc2cnc3[nH]ccc3c2n1C1CCN(Cc2ccccc2)CC1(F)F (racemic) [Example 947, [1-(1-Benzyl-3,3-difluoro-piperidin-4-yl)-1,6-dihydro-1,3,5,6-tetraaza-as-indacen-2-yl]-methanol] | 1.29 | 5.63 | 0.42 | 2.14 |
| OCc1nc2cnc3[nH]ccc3c2n1C1CCNCC1(F)F (racemic) [Example 948, [1-(3,3-Difluoro-piperidin-4-yl)-1,6-dihydro-1,3,5,6-tetraaza-as-indacen-2-yl]-methanol] | 13.6 | 7.32 | 1.23 | 5.95 |
| CN1CCCCCC1C(=O)N1CCC(n2cnc3cnc4[nH]ccc4c32)CC1 (racemic) [Example 953, (1-Methyl-azepan-2-yl)-[4-(6H-1,3,5,6-tetraaza-as-indacen-1-yl)-piperidin-1-yl]-methanone] | 455 | 1830 | 45.7 | 3480 |
| Cn1cc2c(n1)CCC(n1cnc3cnc4[nH]ccc4c31)C2 (racemic) [Example 956, 1-(2-Methyl-4,5,6,7-tetrahydro-2H-indazol-5-yl)-1,6-dihydro-1,3,5,6-tetraaza-as-indacene] | 89.8 | 282 | 55.3 | 410 |
| NC(=O)Cc1nc2cnc3[nH]ccc3c2n1C1CCCOC1 (racemic) [Example 960, 2-[1-(Tetrahydro-pyran-3-yl)-1,6-dihydro-1,3,5,6-tetraaza-as-indacen-2-yl]-acetamide] | 208 | 224 | 30.4 | 236 |
| CNC(=O)Cc1nc2cnc3[nH]ccc3c2n1C1CCCOC1 (racemic) [Example 961, N-Methyl-2-[1-(tetrahydro-pyran-3-yl)-1,6-dihydro-1,3,5,6-tetraaza-as-indacen-2-yl]-acetamide] | 333 | 438 | 45.6 | 316 |
| CCNC(=O)Cc1nc2cnc3[nH]ccc3c2n1C1CCCOC1 (racemic) [Example 962, N-Ethyl-2-[1-(tetrahydro-pyran-3-yl)-1,6-dihydro-1,3,5,6-tetraaza-as-indacen-2-yl]-acetamide] | 208 | 399 | 35.8 | 177 |
| CC(C)NC(=O)Cc1nc2cnc3[nH]ccc3c2n1C1CCCOC1 (racemic) [Example 963, N-Isopropyl-2-[1-(tetrahydro-pyran-3-yl)-1,6-dihydro-1,3,5,6-tetraaza-as-indacen-2-yl]-acetamide] | 190 | 373 | 43.2 | 119 |
| O=C(Cc1nc2cnc3[nH]ccc3c2n1C1CCCOC1)NC1CCC1 (racemic) [Example 965, N-Cyclobutyl-2-[1-(tetrahydro-pyran-3-yl)-1,6-dihydro-1,3,5,6-tetraaza-as-indacen-2-yl]-acetamide] | 160 | 306 | 31.6 | 107 |
| CC(C)CNC(=O)Cc1nc2cnc3[nH]ccc3c2n1C1CCCOC1 (racemic) [Example 966, N-Isobutyl-2-[1-(tetrahydro-pyran-3-yl)-1,6-dihydro-1,3,5,6-tetraaza-as-indacen-2-yl]-acetamide] | 256 | 478 | 38 | 196 |
| O=C(Cc1nc2cnc3[nH]ccc3c2n1C1CCCOC1)N1CCC1 (racemic) [Example 967, 1-Azetidin-1-yl-2-[1-(tetrahydro-pyran-3-yl)-1,6-dihydro-1,3,5,6-tetraaza-as-indacen-2-yl]-ethanone] | 776 | 1060 | 131 | 484 |
| O=C(Cc1nc2cnc3[nH]ccc3c2n1C1CCCOC1)N1CCCC1 (racemic) [Example 968, 1-Pyrrolidin-1-yl-2-[1-(tetrahydro-pyran-3-yl)-1,6-dihydro-1,3,5,6-tetraaza-as-indacen-2-yl]-ethanone] | 891 | 1170 | 131 | 361 |
| CN(CCO)C(=O)Cc1nc2cnc3[nH]ccc3c2n1C1CCCOC1 (racemic) [Example 969, N-(2-Hydroxy-ethyl)-N-methyl-2-[1-(tetrahydro-pyran-3-yl)-1,6-dihydro-1,3,5,6-tetraaza-as-indacen-2-yl]-acetamide] | 1090 | 1140 | 171 | 511 |
| CN(C)C(=O)CNC(=O)Cc1nc2cnc3[nH]ccc3c2n1C1CCCOC1 (racemic) [Example 970, N-Dimethylcarbamoylmethyl-2-[1-(tetrahydro-pyran-3-yl)-1,6-dihydro-1,3,5,6-tetraaza-as-indacen-2-yl]-acetamide] | 124 | 245 | 34.3 | 206 |
| O=C(Cc1nc2cnc3[nH]ccc3c2n1C1CCCOC1)N1CC(F)(F)C1 (racemic) [Example 971, 1-(3,3-Difluoro-azetidin-1-yl)-2-[1-(tetrahydro-pyran-3-yl)-1,6-dihydro-1,3,5,6-tetraaza-as-indacen-2-yl]-ethanone] | 564 | 799 | 114 | 352 |
| O=C(Cc1nc2cnc3[nH]ccc3c2n1C1CCCOC1)NC1CCC(F)(F)CC1 (racemic) [Example 972, N-(4,4-Difluoro-cyclohexyl)-2-[1-(tetrahydro-pyran-3-yl)-1,6-dihydro-1,3,5,6-tetraaza-as-indacen-2-yl]-acetamide] | 113 | 194 | 27.6 | 89.1 |
